From the supplement of paper PMC11451515

Columns and labels:
Settings in all cases: 48 h
NOMO1 [1] = test: cell viability relative to DMSO control; higher = less cytotoxic
Outline: (§1)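 Viability is expressed as a percentage of DMSO wells within each plate, and cell-free wells serve as background. Seeding densities in the 1536-well plates (5 μl) were 500 cells/well for NOMO1 or SEM leukemia cells and 1000 cells/well for P12-Ichikawa. Each line was adapted for at least four passages in each medium. Library compounds in DMSO were pin-dosed at 47 μM to 0.79 nM (11 points, threefold), and CellTiter-Glo One luminescence was read after 48 h at 37°C.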

P12-Ichikawa [2] = test: as above
Outline: as §1

SEM cells [3] = test: as above
Outline: as §1

NOMO1 [4] = test: AUC of viability dose-response curve (% viability x log10 dose units); higher = less sensitive
Outline: (§2)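 In 1536-well plates, leukemia cells adapted to each medium (500 or 1000 cells/well) were exposed for 48 h at 37°C to library compounds in DMSO across 11 threefold doses, 47 μM down to 0.79 nM. Viability was read by CellTiter-Glo One luminescence and normalised per plate to DMSO and cell-free wells. A four-parameter log-logistic fit over log10 doses was integrated by trapezoidal rule. This yielded the area under the curve, with over-full-viability curves scaled and quality-control failures dropped.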

P12-Ichikawa [5] = test: as above
Outline: as §2

SEM cells [6] = test: as above
Outline: as §2

N#C/C(=C\c1ccc(O)c(O)c1)C(=O)NCc1ccccc1
cell viability [%]
Settings | NOMO1 [1] | P12-Ichikawa [2] | SEM cells [3]
HPLM + 10% dialyzed FBS, 0.000781 µM | 103 | 101 | 103
HPLM + 10% dialyzed FBS, 0.00234 µM | 111 | 96.5 | 103
HPLM + 10% dialyzed FBS, 0.00702 µM | 124 | 103 | 109
HPLM + 10% dialyzed FBS, 0.0211 µM | 110 | 106 | 113
HPLM + 10% dialyzed FBS, 0.0632 µM | 98.6 | 104 | 113
HPLM + 10% dialyzed FBS, 0.19 µM | 118 | 106 | 102
HPLM + 10% dialyzed FBS, 0.569 µM | 122 | 103 | 93.2
HPLM + 10% dialyzed FBS, 1.71 µM | 98.5 | 100 | 104
HPLM + 10% dialyzed FBS, 5.12 µM | 91.7 | 102 | 105
HPLM + 10% dialyzed FBS, 15.4 µM | 92.8 | 68.5 | 72.8
HPLM + 10% dialyzed FBS, 46.1 µM | 64.7 | 47.4 | 37.2
RPMI 5 mM glucose + 10% FBS, 0.000781 µM | 100 | 105 | 103
RPMI 5 mM glucose + 10% FBS, 0.00234 µM | 93.2 | 106 | 100
RPMI 5 mM glucose + 10% FBS, 0.00702 µM | 84.5 | 101 | 101
RPMI 5 mM glucose + 10% FBS, 0.0211 µM | 93.3 | 101 | 105
RPMI 5 mM glucose + 10% FBS, 0.0632 µM | 106 | 103 | 114
RPMI 5 mM glucose + 10% FBS, 0.19 µM | 92.1 | 94.3 | 111
RPMI 5 mM glucose + 10% FBS, 0.569 µM | 86.7 | 103 | 107
RPMI 5 mM glucose + 10% FBS, 1.71 µM | 91.3 | 97.6 | 112
RPMI 5 mM glucose + 10% FBS, 5.12 µM | 96.5 | 87 | 96.4
RPMI 5 mM glucose + 10% FBS, 15.4 µM | 97.6 | 68.2 | 80.2
RPMI 5 mM glucose + 10% FBS, 46.1 µM | 89 | 36.7 | 9.69
RPMI 5 mM glucose + 10% dialyzed FBS, 0.000781 µM | 98 | 95.2 | 111
RPMI 5 mM glucose + 10% dialyzed FBS, 0.00234 µM | 103 | 96.1 | 107
RPMI 5 mM glucose + 10% dialyzed FBS, 0.00702 µM | 110 | 99.5 | 96.4
RPMI 5 mM glucose + 10% dialyzed FBS, 0.0211 µM | 105 | 97 | 106
RPMI 5 mM glucose + 10% dialyzed FBS, 0.0632 µM | 102 | 98.7 | 114
RPMI 5 mM glucose + 10% dialyzed FBS, 0.19 µM | 110 | 88.3 | 102
RPMI 5 mM glucose + 10% dialyzed FBS, 0.569 µM | 99.3 | 93.1 | 104
RPMI 5 mM glucose + 10% dialyzed FBS, 1.71 µM | 108 | 94.7 | 101
RPMI 5 mM glucose + 10% dialyzed FBS, 5.12 µM | 89.7 | 80.3 | 101
RPMI 5 mM glucose + 10% dialyzed FBS, 15.4 µM | 95.4 | 67.7 | 69
RPMI 5 mM glucose + 10% dialyzed FBS, 46.1 µM | 83.8 | 41.5 | 26.4

AUC of viability dose-response curve
Settings | NOMO1 [4] | P12-Ichikawa [5] | SEM cells [6]
HPLM + 10% dialyzed FBS | 446 | 448 | 447
RPMI 5 mM glucose + 10% FBS | 447 | 436 | 440
RPMI 5 mM glucose + 10% dialyzed FBS | 460 | 421 | 440
